Strand notation (5' to 3'): a small letter for the sugar, then the base; units joined by * are phosphorothioate-linked, units joined directly phosphodiester-linked; [ ] holds rarer units or linkages, { } end groups; capitals alone tell only the bases. e = 2'-O-(2-methoxyethyl) (MOE); [5mC] = 5-methylcytosine; d = 2'-deoxy (DNA)
Tests used:
platelet factor-4 (PF-4) = experiment: Thrombus formation by real-time RT-PCR quantification of PF-4 in the FeCl3 induced venous thrombosis model; type: in vivo, mouse; conditions: for PF-4 (percentage of PF-4 as compared to the PBS-treated control groups): BALB/c mice, vena cava, FeCl3
Method: Three groups of BALB/c mice were injected with 25 mg/kg, 37.5 mg/kg, or 50 mg/kg of ISIS 403102, administered subcutaneously twice a week for 3 weeks. Two control groups of BALB/c mice were treated with PBS, administered subcutaneously twice a week for 3 weeks. Thrombus formation was induced with FeCl3 in half of the mice while the rest of the mice were assayed for tail bleeding. Two days after receiving the last dose of ISIS 403102 or PBS, mice were anesthetized with 150 mg/kg ketamine mixed with 10 mg/kg xylazine administered by intraperitoneal injection. Thrombus formation was induced with FeCl3 in all groups of the VT mice except the first control group.
In mice undergoing FeCl3 treatment, thrombus formation was induced by applying a piece of filter paper (2×4 mm) pre-saturated with 10% FeCl3 solution directly on the vena cava. After 3 minutes of exposure, the filter paper was removed. Thirty minutes after the filter paper application, a fixed length of the vein containing the thrombus was dissected out for platelet analysis. Liver was collected for RNA analysis.
(§1) Real-time RT-PCR quantification of platelet factor-4 (PF-4) was used to quantify platelets in the vena cava as a measure of thrombus formation. Results are presented as a percentage of PF-4 in ISIS 403102, as compared to the two PBS-treated control groups. […] Therefore, antisense oligonucleotides are useful for inhibiting thrombus and clot formation.
ISIS 403102 and warfarin (Coumadin®) were evaluated in BALB/c mice. Four groups of BALB/c mice were treated with 5 mg/kg, 10 mg/kg, 20 mg/kg, or 40 mg/kg of ISIS 403102, administered subcutaneously twice a week for 3 weeks. Two days after receiving the last dose of ISIS 403102, mice were anesthetized with 150 mg/kg ketamine mixed with 10 mg/kg xylazine administered by intraperitoneal injection. Six additional groups of BALB/c mice was treated with 0.5 mg/kg, 1 mg/kg, 2 mg·kg, 3 mg/kg, 4 mg/kg, or 5 mg/kg of warfarin, administered intraperioneally daily for 6 days. Four hours after the last dose of warfarin, mice were sacrificed. A control group of BALB/c mice were treated with PBS, administered subcutaneously twice a week for 3 weeks. Two days after the last dose of PBS, mice were anesthetized with 150 mg/kg ketamine mixed with 10 mg/kg xylazine administered by intraperitoneal injection. Thrombus formation was induced with FeCl3 in groups of mice except the first control group.
as §1, with “403102 or warfarin treated mice,” for “403102,”, “Therefore, ISIS” for “Therefore,”

human Factor 7 mRNA = experiment: Antisense inhibition of human Factor 7 with short (14-mer) oligonucleotides in HepB3 cells, electroporation 1,000 nM; type: cell-based; conditions: electroporation, 1,000 nM antisense oligonucleotide, approximately 24 hours, Factor 7 mRNA relative to untreated control cells
In short: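 14-mer 2-10-2 MOE gapmers (full phosphorothioate, 5-methyl-C) electroporated at 1,000 nM into HepB3 cells at 20,000 cells/well. After ~24 h, Factor 7 mRNA by real-time RT-PCR, normalized to RiboGreen total RNA. Reported as % inhibition relative to untreated cells.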

CCATAGAACAGCTTCACAGG (sugars from the 5' end e5 d10 e5, backbone and methylation of C not given here) [ISIS 403102]
PF-4 in comparison to the PBS control (platelet factor-4 (PF-4); Example 14, 25, 37.5, 50 mg/kg twice a week for 3 weeks): reduction of PF-4
PF-4 (percentage of PF-4 as compared to the PBS-treated control groups) (platelet factor-4 (PF-4); Example 14, 25 mg/kg s.c. twice a week for 3 weeks): 34%
PF-4 (percentage of PF-4 as compared to the PBS-treated control groups) (platelet factor-4 (PF-4); Example 14, 37.5 mg/kg s.c. twice a week for 3 weeks): 24%
PF-4 (percentage of PF-4 as compared to the PBS-treated control groups) (platelet factor-4 (PF-4); Example 14, 50 mg/kg s.c. twice a week for 3 weeks): 24%
PF-4 (percentage of PF-4 as compared to the PBS-treated control groups) (platelet factor-4 (PF-4); Example 16, 5 mg/kg s.c. twice a week for 3 weeks): 69%
PF-4 (percentage of PF-4 as compared to the PBS-treated control groups) (platelet factor-4 (PF-4); Example 16, 10 mg/kg s.c. twice a week for 3 weeks): 22%
PF-4 (percentage of PF-4 as compared to the PBS-treated control groups) (platelet factor-4 (PF-4); Example 16, 20 mg/kg s.c. twice a week for 3 weeks): 41%
PF-4 (percentage of PF-4 as compared to the PBS-treated control groups) (platelet factor-4 (PF-4); Example 16, 40 mg/kg s.c. twice a week for 3 weeks): 38%
PF-4 in comparison to the PBS control (platelet factor-4 (PF-4); Example 16, dosages of 5 mg/kg and higher, twice a week for 3 weeks): dose-dependent reduction of PF-4

407939 (antisense eT*eG*e[5mC]*eA*eG*d[5mC]*d[5mC]*d[5mC]*dG*dG*d[5mC]*dA*d[5mC]*d[5mC]*d[5mC]*eA*eG*e[5mC]*eG*eA) [compound 407939]
% Inhibition (human Factor 7 mRNA): 81%

From US9029337B2, “Modulation of factor 7 expression” (Isis Pharmaceuticals, Inc., priority 2007, dated 2015)
